Measurements: US20250171431A1, “HETEROCYCLIC INHIBITORS OF IGF-1R FOR TREATMENT OF DISEASE” (HORIZON THERAPEUTICS IRELAND DAC, priority 2023, published 2025)

Molecular target: IGF-1R (Homo sapiens (Human), UniProt P08069)
Assay: Example B-1: IGF-1R Assay (PC3 cells, IGF1 stimulation, AlphaLISA)
Format: cell-based
Settings: 200 ng/mL IGF1 stimulation, read-out: Biological Activity against IGF-1R IC50
Method in brief: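 Readout is AlphaLISA signal from lysed PC3 cells, expressed as % inhibition versus vehicle and EC80 controls and banded by IC50. Before lysis, the cells were starved of serum for 2 h, exposed to 3× serially diluted compound for 2 h, and stimulated for 30 min with 200 ng/mL IGF1 (final).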

Chain of IGF-1R (P08069 31-1367): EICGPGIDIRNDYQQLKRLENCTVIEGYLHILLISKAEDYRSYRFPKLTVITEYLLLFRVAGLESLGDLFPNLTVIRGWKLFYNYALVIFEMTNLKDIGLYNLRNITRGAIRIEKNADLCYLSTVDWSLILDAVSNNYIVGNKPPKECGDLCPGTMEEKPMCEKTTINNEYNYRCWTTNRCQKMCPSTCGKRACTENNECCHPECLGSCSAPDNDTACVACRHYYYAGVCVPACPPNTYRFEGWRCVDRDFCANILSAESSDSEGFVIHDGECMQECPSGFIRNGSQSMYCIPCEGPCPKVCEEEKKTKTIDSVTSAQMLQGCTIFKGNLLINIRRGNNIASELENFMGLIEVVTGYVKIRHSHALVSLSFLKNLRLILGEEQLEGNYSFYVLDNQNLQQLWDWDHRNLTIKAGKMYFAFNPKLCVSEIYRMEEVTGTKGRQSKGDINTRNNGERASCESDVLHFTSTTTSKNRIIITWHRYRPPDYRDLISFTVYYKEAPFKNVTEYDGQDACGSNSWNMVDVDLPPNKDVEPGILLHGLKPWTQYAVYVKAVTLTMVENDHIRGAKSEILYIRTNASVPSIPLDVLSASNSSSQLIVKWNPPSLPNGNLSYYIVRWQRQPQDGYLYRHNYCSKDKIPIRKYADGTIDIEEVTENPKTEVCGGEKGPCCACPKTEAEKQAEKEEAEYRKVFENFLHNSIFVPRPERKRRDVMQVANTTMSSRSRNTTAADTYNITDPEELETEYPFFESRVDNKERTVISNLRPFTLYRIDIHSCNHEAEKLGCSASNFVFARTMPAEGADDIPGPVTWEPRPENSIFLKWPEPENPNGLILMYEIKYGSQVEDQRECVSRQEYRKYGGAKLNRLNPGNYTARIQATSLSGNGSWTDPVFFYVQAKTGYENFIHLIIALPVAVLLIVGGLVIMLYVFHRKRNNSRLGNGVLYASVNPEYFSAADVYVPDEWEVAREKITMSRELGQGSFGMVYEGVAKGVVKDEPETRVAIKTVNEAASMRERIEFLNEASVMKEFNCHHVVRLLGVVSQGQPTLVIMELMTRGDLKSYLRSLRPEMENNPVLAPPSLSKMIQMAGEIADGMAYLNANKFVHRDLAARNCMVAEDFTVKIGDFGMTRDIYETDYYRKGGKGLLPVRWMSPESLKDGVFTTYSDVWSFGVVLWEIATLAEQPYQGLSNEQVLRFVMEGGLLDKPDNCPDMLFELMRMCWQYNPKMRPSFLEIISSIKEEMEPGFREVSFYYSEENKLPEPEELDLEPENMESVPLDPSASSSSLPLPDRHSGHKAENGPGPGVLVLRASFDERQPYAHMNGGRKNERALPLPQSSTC

Row | SMILES | IC50 [nM]
1 | COc1cc(Nc2nccc(Nc3cnc4ccc(Cl)cc4c3)n2)cnc1OC1CCNCC1(F)F (centres unmarked) [Compound 257, 4-(6-chloro-3-quinolylamino)-2-[6-(3,3-difluoro-4-piperidyloxy)-5-methoxy-3-pyridylamino]pyrimidine] | ≤ 500
2 | COc1cc(Nc2nccc(Nc3cnc4ccc(Cl)cc4c3)n2)cnc1O[C@@H]1C[C@H](N(C)C)C1(C)C [Compound 258, 2-{6-[(1R,3S)-3-(dimethylamino)-2,2-dimethylcyclobutoxy]-5-methoxy-3-pyridylamino}-4-(6-chloro-3-quinolylamino)pyrimidine] | ≤ 500
3 | COc1cc(Nc2nccc(Nc3cnc4c(c3)OC(CN(C)C)CO4)n2)ccc1O[C@H]1C[C@@H](N(C)C)C1 (some centres unmarked) [Compound 259, 4-{2-[(dimethylamino)methyl]-2,3-dihydro-1,4-dioxa-5-aza-7-naphthylamino}-2-{3-methoxy-4-[(1s,3s)-3-(dimethylamino)cyclobutoxy]phenylamino}pyrimidine] | ≤ 500
4 | CN(C)[C@H]1C[C@@H](Oc2ccc(Nc3nccc(Nc4cnc5c(c4)OCCO5)n3)cc2)C1 [Compound 260, 4-(2,3-dihydro-1,4-dioxa-5-aza-7-naphthylamino)-2-{p-[(1s,3s)-3-(dimethylamino)cyclobutoxy]phenylamino}pyrimidine] | ≤ 500
5 | COc1cc(Nc2nccc(Nc3cc4cccc(F)c4nc3O)n2)cnc1OC1CCNCC1 [Compound 261, 8-fluoro-3-{2-[5-methoxy-6-(4-piperidyloxy)-3-pyridylamino]-4-pyrimidinylamino}-2-quinolinol] | ≤ 500
6 | COc1cc(Nc2cc(Nc3cnc4ccccc4n3)ccn2)ccc1O[C@H]1C[C@@H](N(C)C)C1 [Compound 262, 2-{3-methoxy-4-[(1s,3s)-3-(dimethylamino)cyclobutoxy]phenylamino}-4-(2-quinoxalinylamino)pyridine] | ≤ 500
7 | COc1cc(Nc2nccc(Nc3cnc4cc(F)c(F)cc4c3)n2)cnc1OC1CCNCC1(F)F (centres unmarked) [Compound 263, 2-[6-(3,3-difluoro-4-piperidyloxy)-5-methoxy-3-pyridylamino]-4-(6,7-difluoro-3-quinolylamino)pyrimidine] | ≤ 500
8 | COc1cc(Nc2nccc(Nc3cnc4ccccc4c3)c2F)ccc1O[C@H]1C[C@@H](N(C)C)C1 [Compound 264, 3-fluoro-2-{3-methoxy-4-[(1s,3s)-3-(dimethylamino)cyclobutoxy]phenylamino}-4-(3-quinolylamino)pyridine] | > 10000
9 | COc1cc(Nc2cc(Nc3cnc4ccccc4c3)ccn2)ccc1O[C@H]1C[C@@H](N(C)C)C1 [Compound 265, 2-{3-methoxy-4-[(1s,3s)-3-(dimethylamino)cyclobutoxy]phenylamino}-4-(3-quinolylamino)pyridine] | 2000 to 10000
10 | COc1cc(Nc2nccc(Nc3ccc4c(O)nccc4c3)n2)ccc1O[C@H]1C[C@@H](N(C)C)C1 [Compound 266, 6-(2-{3-methoxy-4-[(1s,3s)-3-(dimethylamino)cyclobutoxy]phenylamino}-4-pyrimidinylamino)-1-isoquinolinol] | ≤ 500
11 | COc1cc(Nc2nccc(Nc3cnc4ccccc4c3)n2)cc(C#N)c1O[C@H]1C[C@H](N(C)C)C1 [Compound 267, 3-methoxy-5-[4-(3-quinolylamino)-2-pyrimidinylamino]-2-[(1r,3r)-3-(dimethylamino)cyclobutoxy] benzonitrile] | ≤ 500
12 | COc1cc(Nc2nccc(Nc3cnc4c(c3)OCC(C)(C)O4)n2)ccc1O[C@H]1C[C@@H](N(C)C)C1 [Compound 268, 4-(3,3-dimethyl-2,3-dihydro-1,4-dioxa-5-aza-7-naphthylamino)-2-{3-methoxy-4-[(1s,3s)-3-(dimethylamino)cyclobutoxy]phenylamino}pyrimidine] | ≤ 500
13 | COc1cc(Nc2nccc(Nc3cnc4c(F)cccc4c3)n2)cnc1O[C@H]1C[C@@H](N(C)C)C1 [Compound 270, 4-(8-fluoro-3-quinolylamino)-2-{5-methoxy-6-[(1s,3s)-3-(dimethylamino)cyclobutoxy]-3-pyridylamino}pyrimidine] | ≤ 500
14 | COc1cc(Nc2nccc(Nc3cnc4c(c3)OCC(C)(C)O4)n2)cnc1O[C@H]1C[C@@H](N(C)C)C1 [Compound 271, 4-(3,3-dimethyl-2,3-dihydro-1,4-dioxa-5-aza-7-naphthylamino)-2-{5-methoxy-6-[(1s,3s)-3-(dimethylamino)cyclobutoxy]-3-pyridylamino}pyrimidine] | ≤ 500
15 | COc1cc(Nc2nccc(Nc3cnc4cc(F)cnc4c3)n2)ccc1O[C@H]1C[C@@H](N(C)C)C1 [Compound 272, 4-(7-fluoro-1,5-diaza-3-naphthylamino)-2-{3-methoxy-4-[(1s,3s)-3-(dimethylamino)cyclobutoxy]phenylamino}pyrimidine] | ≤ 500
16 | COc1cc(Nc2nccc(Nc3cnc4c(c3)OCCO4)n2)ccc1O[C@H]1CC[C@@H](N(C)C)CC1 [Compound 273] | ≤ 500

Row | SMILES | IC50 [nM]
17 | COc1cc(Nc2nccc(Nc3cnc4cncc(F)c4c3)n2)ccc1O[C@H]1C[C@@H](N(C)C)C1 [Compound 274, 4-(5-fluoro-1,7-diaza-3-naphthylamino)-2-{3-methoxy-4-[(1s,3s)-3-(dimethylamino)cyclobutoxy]phenylamino}pyrimidine] | 2000 to 10000
18 | COc1cc(Nc2nccc(Nc3ccc(Cl)nc3C(N)=O)n2)ccc1O[C@H]1C[C@@H](N(C)C)C1 [Compound 275, 6-chloro-3-(2-{3-methoxy-4-[(1s,3s)-3-(dimethylamino)cyclobutoxy]phenylamino}-4-pyrimidinylamino)-2-pyridinecarboxamide] | ≤ 500
19 | COc1cc(Nc2nccc(Nc3cnc4c(c3)OCCO4)n2)cnc1O[C@H]1C[C@@H](N(C)C)C1 [Compound 276, 4-(2,3-dihydro-1,4-dioxa-5-aza-7-naphthylamino)-2-{5-methoxy-6-[(1s,3s)-3-(dimethylamino)cyclobutoxy]-3-pyridylamino}pyrimidine] | ≤ 500
20 | COc1ccc2ncc(Nc3ccnc(Nc4ccc(O[C@H]5C[C@@H](N(C)C)C5)c(OC)c4)n3)cc2c1 [Compound 277, 4-(6-methoxy-3-quinolylamino)-2-{3-methoxy-4-[(1s,3s)-3-(dimethylamino)cyclobutoxy]phenylamino}pyrimidine] | ≤ 500
21 | COc1cc(Nc2nccc(Nc3cnc4cc(Cl)cnc4c3)n2)ccc1O[C@H]1C[C@@H](N(C)C)C1 [Compound 278, 4-(7-chloro-1,5-diaza-3-naphthylamino)-2-{3-methoxy-4-[(1s,3s)-3-(dimethylamino)cyclobutoxy]phenylamino}pyrimidine] | ≤ 500
22 | COc1cc(Nc2nccc(Nc3cnc4cc(Cl)cnc4c3)n2)cnc1O[C@H]1C[C@@H](N(C)C)C1 [Compound 279, 4-(7-chloro-1,5-diaza-3-naphthylamino)-2-{5-methoxy-6-[(1s,3s)-3-(dimethylamino)cyclobutoxy]-3-pyridylamino}pyrimidine] | 500 to 2000
23 | COc1cc(Nc2nccc(Nc3cnc4c(cnn4C)c3)n2)ccc1O[C@H]1C[C@@H](N(C)C)C1 [Compound 280, 2-{3-methoxy-4-[(1s,3s)-3-(dimethylamino)cyclobutoxy]phenylamino}-4-(1-methyl-1H-1,2,7-triazainden-5-ylamino)pyrimidine] | ≤ 500
24 | COc1cc(Nc2nccc(Nc3cnc4[nH]cc(C)c4c3)n2)ccc1O[C@H]1C[C@@H](N(C)C)C1 [Compound 281, 2-{3-methoxy-4-[(1s,3s)-3-(dimethylamino)cyclobutoxy]phenylamino}-4-(3-methyl-1H-1,7-diazainden-5-ylamino)pyrimidine] | ≤ 500
25 | COc1cc(Nc2nccc(Nc3cnc4c(ccn4C)c3)n2)ccc1O[C@H]1C[C@@H](N(C)C)C1 [Compound 282, 2-{3-methoxy-4-[(1s,3s)-3-(dimethylamino)cyclobutoxy]phenylamino}-4-(1-methyl-1H-1,7-diazainden-5-ylamino)pyrimidine] | ≤ 500
26 | COc1cc(Nc2nccc(Nc3cnc4[nH]c(C)cc4c3)n2)ccc1O[C@H]1C[C@@H](N(C)C)C1 [Compound 283, 2-{3-methoxy-4-[(1s,3s)-3-(dimethylamino)cyclobutoxy]phenylamino}-4-(2-methyl-1H-1,7-diazainden-5-ylamino)pyrimidine] | ≤ 500
27 | COc1cc(Nc2nccc(Nc3cccnc3C(N)=O)n2)ccc1O[C@H]1C[C@@H](N(C)C)C1 [Compound 284, 3-(2-{3-methoxy-4-[(1s,3s)-3-(dimethylamino)cyclobutoxy]phenylamino}-4-pyrimidinylamino)-2-pyridinecarboxamide] | ≤ 500
28 | COc1cc(Nc2nccc(Nc3cnc4ccc(Cl)nc4c3)n2)ccc1O[C@H]1C[C@H](N(C)C)C1 [Compound 285, 4-(6-chloro-1,5-diaza-3-naphthylamino)-2-{3-methoxy-4-[(1r,3r)-3-(dimethylamino)cyclobutoxy]phenylamino}pyrimidine] | ≤ 500
29 | COc1cc(Nc2nccc(Nc3cnc4ccc(Cl)cc4c3)n2)ccc1O[C@H]1CC[C@@H](N(C)C)CC1 [Compound 286, 4-(6-chloro-3-quinolylamino)-2-{3-methoxy-4-[(1s,4s)-4-(dimethylamino)cyclohexyloxy]phenylamino}pyrimidine] | ≤ 500
30 | COc1cc(Nc2nccc(Nc3cnc4cc(F)c(F)cc4c3)n2)cnc1O[C@H]1C[C@@H](N(C)C)C1 [Compound 289, 4-(6,7-difluoro-3-quinolylamino)-2-{5-methoxy-6-[(1s,3s)-3-(dimethylamino)cyclobutoxy]-3-pyridylamino}pyrimidine] | 500 to 2000
31 | COc1cc(Nc2nccc(Nc3cnc4c(F)cc(F)cc4c3)n2)cnc1O[C@H]1C[C@@H](N(C)C)C1 [Compound 290, 4-(6,8-difluoro-3-quinolylamino)-2-{5-methoxy-6-[(1s,3s)-3-(dimethylamino)cyclobutoxy]-3-pyridylamino}pyrimidine] | ≤ 500
32 | COc1cc(Nc2nccc(Nc3cnc4cc(Br)cnc4c3)n2)ccc1OC1CN(C)C1 [Compound 292, 4-(7-bromo-1,5-diaza-3-naphthylamino)-2-[3-methoxy-4-(1-methyl-3-azetidinyloxy)phenylamino] pyrimidine] | 2000 to 10000
